Laboratory results: patent US10543240B2, “Topical composition containing glycerin and yeast extract” (Johnson & Johnson Consumer Inc., priority 2016, dated 2020)

Test system: S. epidermis (ATCC 12228)
Assay: Growth of S. epidermidis under aerobic conditions, time-to-detection (BacT/Alert 3D system)
Assay type: cell-based, Staphylococcus epidermidis
Conditions: S. epidermidis inoculated at 1000 CFU/mL in standard aerobic bottles; test material in PBS; average of three samples; PBS control = 100
From the text: The ability of four test materials to grow S. epidermis (ATCC 12228) under aerobic conditions was investigated. The materials were: 1) phosphate buffered saline buffer solution (PBS), 2) PBS containing 5% of an aqueous solution containing 0.13 weight percent of an extract of Pichia anomala grown on kiwi, 3) PBS containing 3% glycerol, and 4) PBS containing both 5% of an aqueous solution containing 0.13 weight percent of an extract of Pichia anomala grown on kiwi and 3% glycerol. The BacT/Alert 3D system (BioMerieux Inc.) was used to determine the time-to-detection (“TTD”) of S. epidermidis according to the manufacturer's instruction. S. epidermidis were inoculated at concentrations of 1000 colony-forming units (CFU)/mL into standard aerobic bottles (BioMerieux Inc.). The test materials were prepared in PBS and injected into the standard aerobic bottles at the indicated final concentration with the volume of 1 ml. Standard aerobic bottles inoculated with S. epidermidis only and 10 ml of PBS was used as control. Bottles were then inserted into the BacT/Alert 3D system until stationary growth phase. The TTD values were automatically calculated by the BacT/Alert 3D according to the growth algorism. Three samples were tested for each test material and the resulted were averaged. Relative Time-to-Detection (RTTD) was calculated as (TTD treatment-TTD control)/TTD control*100.

Compound: OCC(O)CO [3% Glycerol, glycerol]
- RTTD (Relative Time-to-Detection): 92.56
